Legend:
Format in all cases: cell-based
Rap1 = Rap1 activation affinity assay, Hek293 cells; details: 10 μM; for Effect of inhibitor on isoproterenol's activation of endogenous Rap1: 20 minutes
Protocol: The Rap1 activation affinity assay was performed as follows. A GST fusion protein of the Rap1-binding domain of RalGDS (GST-RalGDS, Dr. Bos, Utrecht University, The Netherlands) was expressed in E. coli following induction by isopropyl-1thio-β-D-galactopyranoside. Active Rap1 was isolated as previously described (Franke et al., EMBO J. 16:252-9, 1997). Briefly, equivalent amounts of supernatants (500 μg) were incubated with GST-RalGDS-Rap1 binding domain coupled to glutathione beads. Following a one hour incubation at 4° C., beads were pelleted and rinsed threes times with ice-cold lysis buffer. The protein was eluted from the beads using 2× Laemmli buffer and applied to a 12% SDS-polyacrylamide gel. Proteins were tansferred to PVDF membrane (Millipore Corporation, Bedford, Mass.), blocked in 5% milk for one hour and, probed with either α-Rap1/Krev-1 (Santa Cruz Biotechnology Inc., Santa Cruz, Calif.) or Flag antibody (Sigma, St Louis, Mo.) overnight at 4° C., followed by an HRP-conjugated anti-rabbit secondary antibody (or anti-mouse secondary for anti-Flag western blots). Proteins were detected using enhanced chemiluminescence.
Hek293 cells (ATCC) were cultured in DMEM plus 10% fetal calf serum, penicillin/streptomycin, and L-glutamine at 37° C. in 5% CO2. Cells were maintained in serum-free DMEM for 16 hours at 37° C. in 5% CO2 prior to treatment with H89 (10 μM) or PP2 (10 μM) for 20 minutes, and then treated with isoproterenol (10 μM) for 5 minutes. Cell lysates were prepared, and a Rap1 activation affinity assay performed as described in Example 1. […] This activation required Src family kinases (SFKs) as it was blocked by the inhibitor PP2.
The mechanism of ERK activation by isoproterenol in Hek293 cells was determined as follows. Hek293 cells were transfected with Flag-Rap1 along with pcDNA3, SrcS17A, SrcS17D, or SrcWT as described above. […]

ERK1/2 = assay: ERK phosphorylation Western blot, Hek293 cells; details: 10 μM, 20 minutes pretreatment
Protocol: To examine the downstream consequences of Src-dependent signaling in Hek293 cells, ERK activation was measured using pERK antibodies (pERK1/2). Hek293 cells received no pretreatment or were pretreated for 20 minutes with H89 (10 μM), PP2 (10 μM), or LY (10 μM), and stimulated for 5 minutes with isoproterenol (10 μM), Forskolin (10 μM), or 100 ng/ml EGF, using the methods described above. Cell lysates were analyzed by Western blotting for the presence of pERK1/2 (New England Biolabs) or total ERK2 (Santa Cruz Biotechnology) as a control for protein loading.
To determine the role of PKA phosphorylation of Src serine 17 in ERK activation by cAMP, Hek293 cells were transfected with myc-ERK2 in the presence or absence of SrcS17A or SrcS17D, and stimulated with 10 μM isoproterenol. MycERK2 was immunoprecipitated from cell lysates using an agarose-coupled Myc antibody followed by western blotting for phospho-ERK (pMycERK2, upper panel) or total MycERK2 with a Myc antibody, as a control for protein loading.

Cb1 = Cb1 tyrosine phosphorylation (immunoprecipitation/Western blot), NIH3T3 cells; details: 10 μM, 20 minutes
Protocol: To determine the role of C3G and its complex in Rap1 activation, NIH3T3 cells were grown and treated for 20 minutes in the presence or absence of H89 (10 μM) or PP2 [AG1879; 4-amino-5-(4-chlorophenyl)-7-(t-butyl)pyazolo[3,4-d]pyrimidine, LY294002 [2-(4-Morpholinyl)-8-phenyl-4H-1-bemzopyran-4-one] (10 μM, Cal Biochem), treated with Forskolin (10 μM, Cal Biochem) for five minutes, and cell lysates prepared, as described above. Endogenous Cb1 was immunoprecipitated using a Cb1 antibody (Santa Cruz Biotechnology Inc.) from cell lysates and analyzed by Western blot for tyrosine phosphorylation, using a pTyr antibody (Santa Cruz Biotechnology Inc.) as described above. Briefly, for immunoprecipitation of Cb1, equal amounts of cell lysate per condition were precipitated at 4° C. for 4 to 6 hours in lysis buffer. Proteins were resolved by SDS-PAGE, blotted onto PVDF membranes and probed with the appropriate antibodies. All Western blots and immunoprecipitations were performed at least three times.

| SMILES | Effect of inhibitor on isoproterenol's activation of endogenous Rap1 (Rap1) | Effect of inhibitor on isoproterenol's phosphorylation of ERK (ERK1/2) | Effect on Forskolin-stimulated Cb1 tyrosine phosphorylation (Cb1) | Activation of endogenous Rap1 (Rap1; 5 minutes) |
| --- | --- | --- | --- | --- |
| CC(C)(C)n1nc(-c2ccc(Cl)cc2)c2c(N)ncnc21 [PP2, 4-amino-5-(4-chlorophenyl)-7-(t-butyl)pyazolo[3,4-d]pyrimidine] | blocked | inhibited | inhibited | – |
| O=S(=O)(NCCNC/C=C/c1ccc(Br)cc1)c1cccc2cnccc12 [H89, N-[2(Bromocimamylamino)ethyl]-5-isoquinolinesulfonamide] | PKA-dependent | inhibited | inhibited | – |
| CC(C)NCC(O)c1ccc(O)c(O)c1 (stereo not shown) [isoproterenol] | – | – | – | activated endogenous Rap1 |

Source: patent US20050037446A1, “Agents that recognize src when phosphorylated at serine 17” (priority 2001, published 2005)
